Laboratory results published in patent publication US11453642B2, “Oxygenated amino- or ammonium-containing sulfonic acid, phosphonic acid and carboxylic acid derivatives and their medical use” (GRI BIO, INC., priority 2011, dated 2022).
pIC50: −log10 of the molar value. Values joined by “and” are separate entries in the source; they are usually repeats but may differ in a detail not shown here. Equal entries are not always repeated. Where two headings read alike, the source gives them in different places. Marks after values point to notes of the source that are not given here.

Assays:
[1] = test system: allergic contact dermatitis response in mice; assay: Allergic contact dermatitis (TDI) model in mice, mouse ear swelling test; assay type: in vivo
Description: The anti-inflammatory and anti-allergic effects of compounds 1a and 1c were assessed in a mouse model of allergic contact dermatitis, a response driven primarily by T helper type 2 (Th2) cells. […] In this model, an allergic dermatitis response is obtained by sensitizing mice to TDI and subsequently challenging them with antigen by topical administration onto the ears. A quantitative assessment of anti-inflammatory and anti-allergic effects of topically or orally administered test compounds is possible by measuring the resulting ear swelling. The advantages of the allergic contact dermatitis model (Zöllner et al., Bioessays 26:693-6 (2004)) are reproducibility and reliability (>90% of BALB/c mice respond to sensitization), a short induction protocol, quantitative assessment by measuring ear thickness, atopic dermatitis-like skin lesions can be induced, and clinically relevant pharmaceuticals, such as corticosteroids, calcineurin-inhibitors and PDE4-inhibitors, are effective in this model.
Female BALB/c-mice were obtained from Charles River (Sulzfeld, Germany) at age 8 weeks. All animals were housed in groups of eight per cage at 22° C. with a 12 h light/dark-cycle, Water and a standard diet (Altromin, Lage/Lippe, Germany) were available ad libitum. All animals were acclimatized for one week before experimental procedures were commenced.
Experimental procedures for BALB/c mice housing, TDI sensitization and challenge, and measurement of ear thickness were performed as previously described (Baumer et al., J Pharm Pharmacol, 55:1107-1114 (2003)) with the following modifications. For active sensitization, 100 μL of 5% (w/v) TDI was administered to the shaved and stripped abdominal epidermis on day one, and for the next three consecutive days, 50 μL of 5% (My) TDI was applied. The allergic reaction was boosted 21 days later by application of 50 μL of 0.5% (w/v) TDI. For the examination of test compound effects, the left ears were used for the TDI challenge (20 μL of 0.5% in acetone) and ear thickness measured 3 h before and 24 h after challenge.
Group size was n=7 mice unless otherwise stated. Test compounds were freshly prepared before administration.
Administration time: to determine optimal time for administration treatment groups were treated orally by gavage with 100 mg/kg of compound 1a or 1c (suspended in 0.5% tylose, 10 mL/kg) 1, 4 or 16 h before topical TDI challenge. One group was treated with 100 mg/kg miltefosine orally, 16 h before challenge (based on available data for optimal administration time for miltefosine) and vehicle treated mice received tylose (10 mL/kg) orally, 4 h before challenge.
Dose-response: two groups of mice were treated orally with compound 1a at 25 mg/kg or 100 mg/kg suspended in 0.5% tylose, 4 h before topical TDI challenge. Vehicle treated mice received 0.5% tylose orally 4 h before challenge. As a positive control, dexamethasone was administered in saline solution at 1 mg/kg or 3 mg/kg, 2 h and 30 min before challenge and 1 h after challenge. The dose and dosing scheme for dexamethasone was based on previous experience showing a maximal effect in this model.
Compound 1a was administered to two groups of mice topically in 20 μl of a 2% or 6% solution in propyleneglycol. The suspension was heated to 60° C. and mixed using a thermomixer (Eppendorf) until it became clear. The solution was applied, 2 h before topical TDI challenge by administration of 10 μl onto each of the inner and outer surfaces of the left ears. A vehicle group (17=5) was treated with propyleneglycol. As a positive control, diflorasone, diacetate was administered at 0.01% (low dose) and 0.05% (high dose) in 20 μl acetone, 2 h before challenge. A basal control group was left untreated.
Mean and standard error of the mean (SEM) were calculated from individual ear edema values. […]

[2] = test system: collagen type II-induced arthritis (CIA); conditions: mouse, in vivo
[3] = test system: DTH response in mice; assay type: in vivo; conditions: for Inhibition of mouse ear swelling: DTH, 24 h after challenge
Description: The anti-inflammatory and anti-allergic effects of compounds 1a and 1c were assessed in a mouse model of skin delayed-type hypersensitivity (DTH) reactions and compared to a vehicle control and to the reference drug dexamethasone. DTH reactions are antigen-specific cell-mediated immune responses, driven primarily by T helper type 1 (Th1) cells, similar to the tuberculin immunization response. The immune reaction induced by an ovalbumin challenge to animals previously sensitized with ovalbumin in Complete Freund's Adjuvant, is characterized by swelling (edema) at the site of challenge, e.g. the mouse ear. Dexamethasone, an anti-inflammatory steroid, reduces cell-mediated immune responses and was employed to validate the responsiveness of the assay to pharmacological treatment.
Female BALB/cJW mice were bred at the University of Lodz, Lodz, Poland and housed in groups of 8 in makrolon cages with a 12 h light-dark cycle. Mice were given free access to food (Agropol S.j., Motycz, Poland) and water.
Sensitization: The protein antigen, ovalbumin, was reconstituted in PBS at 4 mg/ml. An ovalbumin-CFA emulsion was prepared by mixing the protein solution with the CFA suspension at a ratio of 1:1, using two Luer-lock syringes. The emulsion was tested by putting a drop of emulsion onto PBS; if the emulsion remained as a tight droplet on the PBS, the emulsion was deemed ready. Mice were sensitized by subcutaneously injecting 25 μL of emulsion into each side of the tail (100 μg ovalbumin per mouse).
Challenge: On the sixth day after sensitization, DTH was elicited by challenging animals subcutaneously (gauge 30 needle, B. Braun Melsungen, Melsungen, Germany) in the left ears with 10 μL of a 1% suspension of heat-aggregated ovalbumin (HOVA) (100 μg ovalbumin per mouse). The right ears were administered subcutaneously with PBS and served to determine the individual differences in ear thicknesses. HOVA was prepared by heating a 5% solution of ovalbumin in saline for 1 h at 80° C. with occasional swirling. After cooling to room temperature and centrifugation (400 g. 10 min at 4° C.), the pellet was washed twice with saline, resuspended at 2% in PBS and aliquots stored at −30° C. Before injection, HOVA was diluted with an equal volume of PBS and sonicated. Ear thickness was measured with a precise spring-loaded caliper (Art. No. 7309, Mitutoyo, Kawasaki, Japan) before challenge, and 24 h after challenge.
Sensitization, challenge and ear thickness measurement were performed under anesthesia (ketamine 80 mg/kg plus xylazine 8 mg/kg, intraperitoneally).
The anti-inflammatory effects of compounds 1a and 1c were compared to a vehicle control (0.5% methyl cellulose solution) and to the reference drug, dexamethasone. Test compounds were given at 25 or 100 mg/kg orally by gavage (Art. No. 432093, Harvard Apparatus GmbH, March-Hugstetten, Germany) 16 h and 3 h before sensitization and then twice daily with the final dose given 3 h prior to ear challenge (a total of 14 administrations). Dexamethasone was given at 0.1 or 1 mg/kg orally by gavage 3 h before sensitization and once daily with the final dose given 3 h prior to antigen challenge (a total of 7 administrations). All administrations were given in a volume of 10 ml/kg.
To account for individual variability, the increase in right ear thickness, before and 24 h after administration of PBS, was subtracted from the HOVA-induced increase in left ear thickness. The increase in ear thickness was calculated by the difference between ear thickness before and 24 h after antigen challenge. Percent inhibition of ear swelling was calculated according to the following formula: % inhibition=100×(IETvehicle−IETcompound)/IETvehicle where IET=(ET24 hrs pc−ETpredose)HOVA-treated ears−(ET24 hrs pc−ETpredose)PBS-treated ears • (IET, increase ear thickness; ET, ear thickness; pc, post challenge)
Mean and standard deviation (SD) were calculated from individual ear edema values. […]

[4] = test system: RBL-2H3 cells; assay: Maximum tolerated concentration (cytotoxicity by lactate dehydrogenase release); assay type: cell-based, Rat
Excerpt: The safety index (SI) of a test compound is the ratio between the maximum tolerated concentration and the IC50 and is used as a measure of the relative safety of the test compound.

[5] = test system: RBL-2H3 cells; assay: Inhibition of mast cell degranulation (β-hexosaminidase release); assay type: cell-based; conditions: Rattus norvegicus, IgE-sensitized RBL-2H3 cells, 1 h with compound, antigen (DNP-HSA) 15 min
Excerpt: Mast cells are key effector cells involved in allergic and inflammatory diseases, and the Rat Basophilic Leukemia clone 2H3 (RBL-2H3) cell line is a commonly used model of allergen dependent immune modulator release (degranulation) in mast cells. On their surface, they express the high affinity receptor for IgE (FcεRI). Upon binding of antigen-specific IgE to the receptor, cells become sensitized to the IgE specific antigen (allergen). When IgE-sensitized cells then encounter multivalent antigen, the antigen clusters IgE-FcεRI complexes and initiates a signal transduction cascade that leads to degranulation, that is, the release of inflammatory mediators, such as cytokines, eicosanoids, histamine and enzymes. The assay can be used as a screening method to identify immune-modulating compounds, in particular compounds useful in the medical management of allergic and inflammatory diseases and asthma, β-hexosaminidase was previously shown to be released with the same kinetics as histamine (Schwartz et al., J Immunology; 123:1445-1450 (1979)), thus offering a simple means to monitor degranulation. […]
MUG substrate solution, 100 μl, were added to supernatant and lysate samples and plates were incubated 30 min at 37° C. […] Fluorescence was measured at 365 nm excitation and 440 nm emission wavelengths. […]

Compound	Inhibition of mouse ear swelling ([1]; dose-response study, 1 mg/kg, 2 h and 30 min before and 1 h after challenge)	Inhibition of mouse ear swelling ([1]; dose-response study, 1 mg/kg, 2 h and 30 min before and 1 h after challenge, listed as dexamethasone)	Inhibition of mouse ear swelling ([1]; dose-response study, 3 mg/kg, 2 h and 30 min before and 1 h after challenge)	Inhibition of mouse ear swelling ([1]; dose-response study, 3 mg/kg, 2 h and 30 min before and 1 h after challenge, listed as dexamethasone)	spleen and thymus weights [2]	Inhibition of mouse ear swelling ([3]; 0.1 mg/kg orally once daily (7 administrations))	Inhibition of mouse ear swelling ([3]; 1.0 mg/kg orally once daily (7 administrations))	loss in body weight ([3]; mouse, in vivo, po, 1 mg/kg)	inhibitory efficacy relative to that of 1a at its optimal administration time of 4 h ([1]; 100 mg/kg oral, 16 h before challenge vs 1a 4 h)	inhibitory efficacy relative to that of compound 1c at its optimal administration time of 4 h ([1]; 100 mg/kg oral, 16 h before challenge vs 1c 4 h)	Inhibition of mouse ear swelling ([1]; administration time study, 100 mg/kg oral, 16 h before TDI challenge)	MTC (maximum tolerated concentration) ([4]; highest concentration not causing cytotoxicity (LDH release), RBL-2H3 cells)	SI (safety index) ([4]; ratio between MTC and IC50)	pIC50 [5]
C[C@@H]1C[C@H]2[C@@H]3CCC4=CC(=O)C=C[C@]4(C)[C@@]3(F)[C@@H](O)C[C@]2(C)[C@@]1(O)C(=O)CO [Dexamethasone, reference compound]	78.6*** %	78%	87.1*** %	87%	markedly reduced	14%	53%	9%						
CCCCCCCCCCCCCCCCOP(=O)([O-])OCC[N+](C)(C)C [Miltefosine, reference compound]									64%	69%	47% and 47.3^§ %	25 µM	6.0	5.38
